Test results published in article PMC9094411 (2022).

Tested on: E. coli SugE guanidine-II riboswitch aptamer, 47mer FRET construct (C1G) (RNA, riboswitch, 5-aminoallyl-uridine at 3 (dye conjugated)) GUUUGCAGGACGACCUGCAAACGCCUCUUUUCACCGGGGACGGCCCC
Experiment: smFRET histograms, immobilised RNA (kissing-loop state population)
Conditions: Mg2+ 1 mM, 50 mM Tris/Cl pH 7.4, 22 °C, imaging buffer, 30 nM-30 mM ligand

binding (K-state 66% at 30 mM) | binding (K-state 66% at 30 mM buffer, highest tested 30 mM, no K-state shift, RNA destabilised (U-state 35%)) | Structure (SMILES)
yes |  | N=C(N)N
 | no | NC(N)=O
